The test system of one assay is Caco-2 cells. The assay is described as follows: MTT cell viability assay in Caco-2 cells. The class given is cell-based. Conditions: Homo sapiens, Caco-2; MTT assay, 72 h incubation, mean ± SD; read-out: IC50 Caco-2. As to the method:
(§1) The MTT assay was used to assess the effect of the compounds on cell viability. For this purpose, A375 (1500 cells per well), BJ (10 000 cells per well), Caco-2 (4000 cells per well), HCT116 (3000 cells per well), Mia Paca-2 (2000 cells per well), SW480 (6000 cells per well), and SW620 (8000 cells per well) cells were seeded in 96-well plates and incubated for 24 h. Subsequently, the culture medium was switched with a new medium containing DMSO (control) or the compound at a specified concentration. Following a 72 h incubation period, the supernatant was aspirated, and 100 μL of a mixture (1 : 1) of filtered MTT solution (1 mg per mL PBS) and FBS-free medium was added. The plates were then incubated for 1 h at 37 °C. After this time, the supernatant was aspirated, and the formazan crystals were dissolved in 100 μL of DMSO in each well. Relative cell viability was calculated by measuring absorbance at 570 nm using a Benchmark Plus Microplate Reader (Bio-Rad Laboratories, Hercules, CA, USA). Results are presented as the mean ± standard deviation (SD) of IC50 values, determined by nonlinear regression analysis of dose–response curves (log(inhibitor) vs. response with variable slope (four parameters)) using GraphPad Prism 9 software (GraphPad Software, San Diego, CA, USA).

The subject of assay [1] is HCT116 cells. As to the kind of experiment: MTT cell viability assay in HCT116 cells. In kind it is cell-based. The note with it: for IC50: Homo sapiens, read-out: IC50 HCT116. As to the method:
The MTT assay was used to assess the effect of the compounds on cell viability. […] Subsequently, the culture medium was switched with a new medium containing DMSO (control) or the compound at a specified concentration. […] The plates were then incubated for 1 h at 37 °C. After this time, the supernatant was aspirated, and the formazan crystals were dissolved in 100 μL of DMSO in each well. Relative cell viability was calculated by measuring absorbance at 570 nm using a Benchmark Plus Microplate Reader (Bio-Rad Laboratories, Hercules, CA, USA).

Assay [2] has as its system SW620 cells. The assay is described as follows: MTT cell viability assay in SW620 cells. Conditions: Homo sapiens, SW-620; MTT assay, 72 h incubation, mean ± SD; read-out: IC50 SW620. In kind it is cell-based. The procedure: as §1
On the technique in general: Formazan colour is commonly taken as a measure of viable cells.

The test system of assay [3] is Mia Paca-2 cells. As to the kind of experiment: MTT cell viability assay in Mia Paca-2 cells. In kind it is cell-based. The note with it: Homo sapiens, MIA PaCa-2; MTT assay, 72 h incubation, mean ± SD; read-out: IC50 Mia Paca-2. The procedure:
as §1

For assay [4], the system named is SW620 cells. Further details: method as in PMID 31909511. Conditions: MTT assay, previously determined by the research team, ref [35]; cited from earlier work.
The subject of assay [5] is A375 cells. Further details: method as in PMID 23229057. Conditions: MTT assay, from the literature, ref [38]; cited from earlier work.
For the next assay, the system named is BJ cells. Details: method as in doi:10.1039/C5RA19120C. Conditions: MTT assay, previously determined by the research team, ref [39]; read-out: IC50 BJ (non-tumoral); cited from earlier work.
Assay [6] concerns Mia Paca-2 cells. Details: method as in PMID 18007390. Conditions: MTT assay, from the literature, ref [37]; cited from earlier work.
The subject of assay [7] is HCT116 cells. The note with it: MTT assay, 72 h; previously determined by the research team, ref [26]; cited from earlier work.
For assay [8], the system named is A375 cells. The assay is described as follows: MTT cell viability assay in A375 cells. The class given is cell-based. The note with it: Homo sapiens, A-375; MTT assay, 72 h incubation, mean ± SD; read-out: IC50 A375. As to the method:
as §1

The test system of another assay is SW480 cells. As to the kind of experiment: MTT cell viability assay in SW480 cells. In kind it is cell-based. The procedure: as §1
Where [9] appears, read: HCT-116, MTT assay, 72 h incubation, mean ± SD.
Setting [10] is: SW480 cells, ratio of IC50 values.

Consider 16 compounds from PMC12498136, “Synthesis and biological evaluation of novel carnosic acid derivatives with anticancer activity” (RSC Advances, 2025).

Like-named read-outs stand apart in the source and are kept apart here.

As usually defined, the IC50 is the concentration that inhibits the measured activity by half. On to `CC(C)c1cc2c(c(O)c1O)[C@@]1(C(=O)O)CCCC(C)(C)[C@@H]1CC2` [CA 1, Carnosic acid], for which the half-inhibitory concentration (IC50) was determined as 34 ± 2 µM with Caco-2 cells, 42 ± 4 µM in the assay with HCT116 cells [1] (setting [9]), 18 ± 2 µM in the assay with SW620 cells [2] and 21 ± 1 µM in the assay on Mia Paca-2 cells [3]. Consider `N.N.[Cl][Pt][Cl]` [Cisplatin], for which the IC50 is 1.4 ± 0.5 µM with SW620 cells [4]; 3 ± 1 µM with A375 cells [5]; 10 ± 2 µM in the assay on BJ cells; 5 ± 1 µM in the assay on Mia Paca-2 cells [6]; 21 ± 1 µM in the assay with HCT116 cells [7]. `CC(=O)Oc1c(C(C)C)cc2c(c1OC(C)=O)[C@@]1(C(=O)O)CCCC(C)(C)[C@@H]1CC2` [Compound 2, (4aR,10aS)-5,6-Bis(acetyloxy)-1,1-dimethyl-7-(propan-2-yl)1,3,4,9,10,10a-hexahydrophenanthrene-4a(2H)-carboxylic acid]: the 50% inhibitory concentration (IC50) with HCT116 cells [1] (setting [9]) was found to be 44 ± 4 µM. Consider `CCOC(=O)[C@]12CCCC(C)(C)[C@@H]1CCc1cc(C(C)C)c(OC(C)=O)c(OC(C)=O)c12` [Compound 4, Ethyl(4aR,10aS)-5,6-bis(acetyloxy)-1,1-dimethyl-7-(propan-2-yl)-1,3,4,9,10,10a-hexahydrophenanthrene-4a(2H)-carboxylate], for which the IC50 in the assay with HCT116 cells [1] (HCT-116, 72 h) stood at 25 ± 2 µM.

Take `CCCCOC(=O)[C@]12CCCC(C)(C)[C@@H]1CCc1cc(C(C)C)c(OC(C)=O)c(OC(C)=O)c12` [Compound 5, Butyl(4aR,10aS)-5,6-bis(acetyloxy)-1,1-dimethyl-7-(propan-2-yl)-1,3,4,9,10,10a-hexahydrophenanthrene-4a(2H)-carboxylate]: the IC50 in the assay on HCT116 cells [1] (setting [9]) came out at 26 ± 1 µM.

`COC(=O)[C@]12CCCC(C)(C)[C@@H]1CC(=O)c1cc(C(C)C)c(OC(C)=O)c(OC(C)=O)c12` [Compound 6, Methyl(4aR,10aS)-5,6-bis(acetyloxy)-1,1-dimethyl-9-oxo-7-(propan-2-yl)-1,3,4,9,10,10a-hexahydrophenanthrene-4a(2H)-carboxylate]: the 50% inhibitory concentration (IC50) with HCT116 cells [1] (setting [9]) is 36 ± 1 µM.

Take `CCOC(=O)[C@]12CCCC(C)(C)[C@@H]1CC(=O)c1cc(C(C)C)c(OC(C)=O)c(OC(C)=O)c12` [Compound 7, Ethyl(4aR,10aS)-5,6-bis(acetyloxy)-1,1-dimethyl-9-oxo-7-(propan-2-yl)-1,3,4,9,10,10a-hexahydrophenanthrene-4a(2H)-carboxylate]: the 50% inhibitory concentration (IC50) in the assay on HCT116 cells [1] (setting [9]) was found to be 31 ± 3 µM. For `CCCCOC(=O)[C@]12CCCC(C)(C)[C@@H]1CC(=O)c1cc(C(C)C)c(OC(C)=O)c(OC(C)=O)c12` [Compound 8, Butyl(4aR,10aS)-5,6-bis(acetyloxy)-1,1-dimethyl-9-oxo-7-(propan-2-yl)-1,3,4,9,10,10a-hexahydrophenanthrene-4a(2H)-carboxylate], the IC50 in the assay on A375 cells [8] was 8.1 ± 0.5 µM; with Caco-2 cells, 12.7 ± 0.3 µM; in the assay with HCT116 cells [1] (setting [9]), 15.1 ± 0.7 µM; in the assay on SW620 cells [2] it was 11 ± 1 µM; in the assay with SW480 cells (Homo sapiens, SW480, MTT assay, 72 h incubation, mean ± SD, read-out: IC50 SW480) it was 6.8 ± 0.6 µM; in the assay with Mia Paca-2 cells [3] it was 12 ± 1 µM. Moreover, the “fold more active than cisplatin” value with HCT116 cells [1] (HCT116 cells, ratio of IC50 values) came out at 1.4 fold; with SW480 cells (setting [10]) it was 2.2 fold. For the same compound, in the assay with SW480 cells (setting [10]), the “fold more potent than CA 1” value was 3.2 fold.

`COC(=O)[C@]12CCCC(C)(C)[C@@H]1CC(O)c1cc(C(C)C)c(OC(C)=O)c(OC(C)=O)c12` (stereo partly drawn) [Compound 9, Methyl(4aR,10aS)-5,6-bis(acetyloxy)-9-hydroxy-1,1-dimethyl-7-(propan-2-yl)-1,3,4,9,10,10a-hexahydrophenanthrene-4a(2H)-carboxylate]: the half-inhibitory concentration (IC50) in the assay with HCT116 cells [1] (setting [9]) came out at 37 ± 3 µM. Same read-out and setting: the value for `CCOC(=O)[C@]12CCCC(C)(C)[C@@H]1CC(O)c1cc(C(C)C)c(OC(C)=O)c(OC(C)=O)c12` (stereo partly drawn) [Compound 10, Ethyl(4aR,10aS)-5,6-bis(acetyloxy)-9-hydroxy-1,1-dimethyl-7-(propan-2-yl)-1,3,4,9,10,10a-hexahydrophenanthrene-4a(2H)-carboxylate] was 34 ± 3 µM; that for `CCCCOC(=O)[C@]12CCCC(C)(C)[C@@H]1CC(O)c1cc(C(C)C)c(OC(C)=O)c(OC(C)=O)c12` (stereo partly drawn) [Compound 11, Butyl(4aR,10aS)-5,6-bis(acetyloxy)-9-hydroxy-1,1-dimethyl-7-(propan-2-yl)-1,3,4,9,10,10a-hexahydrophenanthrene-4a(2H)-carboxylate] was 27 ± 4 µM. For the compound `CC(=O)Oc1c(C(C)C)cc2c(c1OC(C)=O)[C@@]1(N=C=O)CCCC(C)(C)[C@@H]1CC2` [Compound 14, (4bR,8aS)-4b-Isocyanato-8,8-dimethyl-2-(propan-2-yl)-4b,5,6,7,8,8a,9,10-octahydrophenanthrene-3,4-diyl diacetate], the IC50 with HCT116 cells [1] (HCT-116, 72 h) was found to be 28 ± 3 µM. Turning to `COC(=O)N[C@]12CCCC(C)(C)[C@@H]1CCc1cc(C(C)C)c(OC(C)=O)c(OC(C)=O)c12` [Compound 15, (4bR,8aS)-4b-[(Methoxycarbonyl)amino]-8,8-dimethyl-2-(propan-2-yl)-4b,5,6,7,8,8a,9,10-octahydrophenanthrene-3,4-diyl diacetate], in the assay on HCT116 cells [1] (HCT-116, 72 h), the IC50 amounted to 55 ± 5 µM. `CCOC(=O)N[C@]12CCCC(C)(C)[C@@H]1CCc1cc(C(C)C)c(OC(C)=O)c(OC(C)=O)c12` [Compound 16, (4bR,8aS)-4b-[(Ethoxycarbonyl)amino]-8,8-dimethyl-2-(propan-2-yl)-4b,5,6,7,8,8a,9,10-octahydrophenanthrene-3,4-diyl diacetate]: the IC50 in the assay with HCT116 cells [1] (HCT-116, 72 h) amounted to 37 ± 2 µM.

Regarding `COC(=O)N[C@]12CCCC(C)(C)[C@@H]1CC(=O)c1cc(C(C)C)c(OC(C)=O)c(OC(C)=O)c12` [Compound 18, (4bR,8aS)-4b-[(Methoxycarbonyl)amino]-8,8-dimethyl-10-oxo-2-(propan-2-yl)-4b,5,6,7,8,8a,9,10-octahydrophenanthrene-3,4-diyl diacetate], the concentration for half-maximal inhibition (IC50) in the assay with HCT116 cells [1] (HCT-116, 72 h) is above 50 µM. `CCOC(=O)N[C@]12CCCC(C)(C)[C@@H]1CC(=O)c1cc(C(C)C)c(OC(C)=O)c(OC(C)=O)c12` [Compound 19, (4bR,8aS)-4b-[(Ethoxycarbonyl)amino]-8,8-dimethyl-10-oxo-2-(propan-2-yl)-4b,5,6,7,8,8a,9,10-octahydrophenanthrene-3,4-diyl diacetate]: in the assay on HCT116 cells [1] (HCT-116, 72 h), the half-inhibitory concentration (IC50) worked out at 48.2 ± 0.1 µM.
